Tested on: Balb/c mice
Test: Oligodeoxynucleotides as immunostimulators: immunization with M7A-alpha peptide plus oligodeoxynucleotide, inflammatory heart disease at day 21
Assay type: in vivo
Details: for Severity of inflammatory heart disease (score) / Prevalence of inflammatory heart disease: Table 2, day 21; for Severity of inflammatory heart disease (score): about 10 nmol oligodeoxynucleotide + about 50 micrograms M7A-alpha, score scale of Example 1; for Immunostimulatory / adjuvant activity: with M7A-alpha peptide, in the absence of Freund's complete adjuvant
[1] = about 10 nmol oligodeoxynucleotide as adjuvant + about 50 micrograms M7A-alpha, Freund's incomplete adjuvant, days 0 and 7

GTACTGACGTTTACTCTTGG (chemistry not given here) [CpG, oligonucleotide from DNA encoding 60 kDa cysteine rich outer membrane protein of Chlamydia trachomatis, containing a CpG motif]
Severity of inflammatory heart disease (score) (Freund's incomplete adjuvant): 1.2 ± 0.4 | Prevalence of inflammatory heart disease [1]: 5/5 | Prevalence of inflammatory heart disease (negative control: about 10 nmol oligodeoxynucleotide without peptide): 0/5 | Immunostimulatory / adjuvant activity: potent immunostimulator

GTACTGAGCTTTACTCTTGG (chemistry not given here) [non-CpG, counterpart of the CpG oligo not containing the CpG motif, reference compound]
Severity of inflammatory heart disease (score) (Freund's incomplete adjuvant): 1.0 ± 0.0 | Prevalence of inflammatory heart disease [1]: 1/5 | Immunostimulatory / adjuvant activity: hardly effective as an adjuvant
